The values below come from patent US20240393340A1, “PROGNOSIS AND PREDICTIVE BIOMARKERS AND BIOLOGICAL APPLICATIONS THEREOF” (INSTITUT GUSTAVE ROUSSY, priority 2013, published 2024).

Each structure is given as a SMILES string. Bounds are passed on as bounds.

Holding throughout (format): cell-based
For one experiment, the system named is eIF4F complex. The experiment can be described thus: Cap binding assay (m7GTP-Sepharose beads). Here is the method:
FIG. 3: Examination of eIF4F complex formation by the “cap binding assay” in the indicated cell lines. Eluates from the beads (m7G-bound) and total extracts (input) were analyzed on 4% to 12% gradient gel electrophoresis, followed by Western blotting with the indicated antibodies.
Cells were grown for 48 h in 10% Fetal Bovine Serum (FBS) followed by 24 h without FBS. Cells were subsequently grown for 12 h in the absence or the presence of trastuzumab. Cells were harvested and lysed in ice-cold lysis buffer (KCl 150 mM, Hepes pH 7.5 50 mM, DTT 2 mM, Tween 20 0.2%, and Complete Protease Inhibitor Cocktail from Roche). Cell lysates were incubated with 7-methyl-GTP-sepharose 4B beads (Amersham Biosciences) for 2 h at 4° C. Eluates from the beads (7 mG-bound) and total extracts (Tot.) were analyzed on 4-12% gradient gel electrophoresis followed by western blot. Experiments were repeated at least 4 times.
In a so-called “cap binding assay”, synthetic m7GTP-Sepharose beads were used to capture eIF4E and its binding partners, eIF4G (called Cap-ON complex) and 4EBP1 (called Cap-OFF complex). The inventors observed that following PLX-4720 treatment, the amount of eIF4E-bound 4EBP1 (Cap-OFF complex) was increased, whereas the quantity of eIF4E-bound eIF4G (Cap-ON complex), i.e. the formation of the active eIF4F complex, was decreased in the two PLX-4720-sensitive cell lines (A375, Mel888) (FIG. 3). In contrast, and consistent with the inventors' hypothesis, the formation of the eIF4F complex was unchanged in the two cell lines (Mel624, A2058) with less sensitivity to PLX-4720.

Another experiment relates to Mel624. The experiment can be described thus: Short-term growth-inhibition assay (Example 1). Here is the method:
(§1) FIGS. 1A-1B: Short-term growth-inhibition assay of a panel of melanoma cell lines including BRAF (V600E) cell lines and an NRAS (Q61R) mutated cell line. FIG. 1A. Cells were treated with increasing concentrations of N-[3-[(5-Chloro-1H-pyrrolo[2,3-b]pyridin-3-yl)carbonyl]-2,4-difluorophenyl]-1-propanesulfonamide (PLX-4720) for 72 h and cell viability was determined using CellTiter-Blue by measuring the absorbance at 540 nm in a microplate reader. Error bars show data +standard error. Means were derived from four replicates (n=4). FIG. 1B. Long-term colony formation assay of the indicated cells. Cells were grown in the absence or presence of PLX-4720 at the indicated concentrations for 15-20 days. For each cell line, all dishes were fixed at the same time, stained and photographed. […]
(§2) The inventors quantified the effect of exposing these cell lines to PLX-4720 on the half-maximum inhibitory concentration (IC50) (Table 1).

The next experiment deals with A2058. The experiment can be described thus: Short-term growth-inhibition assay (Example 1). As to the method: as §1, §2
For a further experiment, the system named is ERK phosphorylation. Put plainly: Western blot analysis of total and phosphorylated proteins. To be noted: all tested cell lines. For orientation: A western blot detects proteins with antibodies after separation by electrophoresis.
In another experiment the test system is SK-Mel28. Put plainly: Short-term growth-inhibition assay, PLX-4720 (Example 1). The note with it: Homo sapiens, SK-MEL-28; SK-Mel28 cell line; read-out: half-maximum inhibitory concentration (IC50). Here is the method:
(§3) FIGS. 1A-1B: Short-term growth-inhibition assay of a panel of melanoma cell lines including BRAF (V600E) cell lines and an NRAS (Q61R) mutated cell line. FIG. 1A. Cells were treated with increasing concentrations of N-[3-[(5-Chloro-1H-pyrrolo[2,3-b]pyridin-3-yl)carbonyl]-2,4-difluorophenyl]-1-propanesulfonamide (PLX-4720) for 72 h and cell viability was determined using CellTiter-Blue by measuring the absorbance at 540 nm in a microplate reader. Error bars show data +standard error. Means were derived from four replicates (n=4). FIG. 1B. Long-term colony formation assay of the indicated cells. Cells were grown in the absence or presence of PLX-4720 at the indicated concentrations for 15-20 days. For each cell line, all dishes were fixed at the same time, stained and photographed.
(§4) Cell proliferation was measured using a WST-1 reagent (Roche Applied Science, IN, USA). Melanoma cells were plated with 5000 cells per well in 96-well tissue culture plates. After 24 hours, the cells were treated with drugs or DMSO at the indicated concentrations, in triplicates. WST-1 reagent was added to the wells and incubated at 37° C. for 2 hours before and after the treatment period of 48 hours. The plates were then read at 450 nm on a Wallac Victor^3 1420 Multilabel Counter (Perkin Elmer, ON, Canada). Absorbance readings are expressed in terms of cell proliferation as percent of the control cells growth within the 48 hours of treatment.
as §2

The test system of a further experiment is Mel888. The experiment is described as above. The note with it: Mel888 cell line; read-out: half-maximum inhibitory concentration (IC50). As to the method:
as §3, §4, §2

The subject of the next experiment is A375. The experiment is described as above. To be noted: Homo sapiens, A-375; A375 cell line; read-out: half-maximum inhibitory concentration (IC50). As to the method: as §3, §4, §2
Another experiment concerns Mel10. The experiment is described as above. To be noted: Mel10 cell line; read-out: half-maximum inhibitory concentration (IC50). Here is the method: as §3, §4, §2
In another experiment the test system is SK-Mel5. The experiment is described as above. The note with it: Homo sapiens, SK-MEL-5; SK-Mel5 cell line; read-out: half-maximum inhibitory concentration (IC50). Here is the method: as §3, §4, §2
Setting [1] is: sensitive cell lines A375, Mel888.

In the case of `CCCS(=O)(=O)Nc1ccc(F)c(C(=O)c2c[nH]c3ncc(Cl)cc23)c1F` [PLX-4720, N-[3-[(5-Chloro-1H-pyrrolo[2,3-b]pyridin-3-yl)carbonyl]-2,4-difluorophenyl]-1-propanesulfonamide], in the experiment with eIF4F complex (less sensitive cell lines Mel624, A2058), the “formation / disruption of the eIF4F (eIF4E-eIF4G) complex” value was “unchanged”. The “amount of eIF4E-bound 4EBP1 (Cap-OFF complex)” value in the experiment with eIF4F complex (setting [1]) is recorded as “increased”. Moreover, in the experiment on eIF4F complex (setting [1]), the “quantity of eIF4E-bound eIF4G (Cap-ON complex)” value is reported as “decreased”. Besides, the “sensitivity of the cell line compared to the other BRAF (V600E)-mutated melanoma cell lines” value is given as “less sensitive” in the experiment with Mel624 (Mel624, short-term and long-term proliferation assays, Example 1); “less sensitive” with A2058 (A2058, short-term and long-term proliferation assays, Example 1). For the same molecule, the IC50 is 4400 nM with Mel624 (Mel624 cell line, read-out: half-maximum inhibitory concentration (IC50)); 2400 nM with A2058 (Homo sapiens, A2058 cell line, read-out: half-maximum inhibitory concentration (IC50)); 400 nM in the experiment on SK-Mel28; 100 nM with Mel888; 400 nM in the experiment on A375; greater than 10000 nM in the experiment on Mel10. The IC50 with SK-Mel5 was 1500 nM. Further, the “ERK phosphorylation downstream of BRAF” value in the experiment with ERK phosphorylation was “inhibited ERK phosphorylation”.
